According to PMC10301922, “Anti-Oxidant, Anti-Mutagenic Activity and Safety Evaluation of Antrocin” (Toxics, 2023):

Tested on: Sprague Dawley rats
Assay: 28-day oral toxicity test: histopathological examination
Details: for Bone, femur: Hypertrophy, epiphysis; Score value / Bone marrow, femur: Hypocellularity; Score value / Bone marrow, sternum: Hypocellularity; Score value / Spleen: Atrophy, red pulp; Score value: grades 1-5
[1] = female rats, 7.5 mg/kg oral 28 d
[2] = female rats, 37.5 mg/kg oral 28 d
[3] = male rats, 37.5 mg/kg oral 28 d

`C=C1CC[C@H]2C(C)(C)CCC[C@@]23C(=O)OC[C@@H]13` [Antrocin, (-)-Antrocin] was tested, and the “Adrenal gland: Congestion, cortex, focal, slight; incidence” value [1] was “-”, the “Aorta: histopathological lesions” value [1] was “-” and the “Bone, femur: Hypertrophy, epiphysis, diffuse, slight to moderate/severe; incidence” value (from here on “Bone, femur … to moderate/severe; incidence”) [1] was 0/5. The “Cervix: histopathological lesions” value [1] was “-”, the “Esophagus: histopathological lesions” value [1] was “-” and the “Eyes: histopathological lesions” value [1] was “-”. For the same molecule, the “Heart: histopathological lesions” value [1] was “-”, the “Kidney: Cast, tubule, focal, slight; incidence” value [1] was “-” and the “Liver: Fatty change, multifocal, slight; incidence” value [1] was 1/5. For the same molecule, the “Lung: histopathological lesions” value [1] was “-”, the “Optic nerve: histopathological lesions” value [1] was “-” and the “Ovary: Increase, follicle, multifocal, moderate to moderate/severe; incidence” value [1] was 0/5. For the same molecule, the “Oviduct: histopathological lesions” value [1] was “-”, the “Pancreas: histopathological lesions” value [1] was “-” and the “Parathyroid gland: histopathological lesions” value [1] was “-”. The “Pituitary: histopathological lesions” value [1] was “-”, the “Salivary gland: histopathological lesions” value [1] was “-” and the “Sciatic nerve: histopathological lesions” value [1] was “-”. The “Skeletal muscle: histopathological lesions” value [1] was “-”, the “Skin: histopathological lesions” value [1] was “-” and the “Spinal cord: histopathological lesions” value [1] was “-”. The “Spleen: histopathological lesions” value [1] was “-”, the “Stomach: histopathological lesions” value [1] was “-” and the “Thymus: histopathological lesions” value [1] was “-”. For the same molecule, the “Thyroid gland: histopathological lesions” value [1] was “-”, the “Tongue: histopathological lesions” value [1] was “-” and the “Trachea: histopathological lesions” value [1] was “-”. The “Urinary bladder: histopathological lesions” value [1] was “-”, the “Uterus: histopathological lesions” value [1] was “-” and the “Vagina: histopathological lesions” value [1] was “-”. The “Bone, femur: Hypertrophy, epiphysis; Score value” (from here on “Bone, femur … Score value”) [1] was 0, the “Adrenal gland: Congestion, cortex, focal, slight; incidence” value [2] was “-” and the “Aorta: histopathological lesions” value [2] was “-”. For the same molecule, the “Bone, femur … to moderate/severe; incidence” value [2] was 0/5, the “Cervix: histopathological lesions” value [2] was “-” and the “Esophagus: histopathological lesions” value [2] was “-”. For the same molecule, the “Eyes: histopathological lesions” value [2] was “-”, the “Harderian gland: Infiltration, mononuclear cell, focal, minimal; incidence” value [2] was 1/5 and the “Heart: histopathological lesions” value [2] was “-”. The “Kidney: Cast, tubule, focal, slight; incidence” value [2] was “-”, the “Lung: histopathological lesions” value [2] was “-” and the “Optic nerve: histopathological lesions” value [2] was “-”. For the same molecule, the “Ovary: Increase, follicle, multifocal, moderate to moderate/severe; incidence” value [2] was 0/5, the “Oviduct: histopathological lesions” value [2] was “-” and the “Pancreas: histopathological lesions” value [2] was “-”. The “Parathyroid gland: histopathological lesions” value [2] was “-”, the “Pituitary: histopathological lesions” value [2] was “-” and the “Salivary gland: histopathological lesions” value [2] was “-”. For the same molecule, the “Sciatic nerve: histopathological lesions” value [2] was “-”, the “Skeletal muscle: histopathological lesions” value [2] was “-” and the “Skin: histopathological lesions” value [2] was “-”. For the same molecule, the “Spinal cord: histopathological lesions” value [2] was “-”, the “Spleen: histopathological lesions” value [2] was “-” and the “Stomach: histopathological lesions” value [2] was “-”. The “Thymus: histopathological lesions” value [2] was “-”, the “Thyroid gland: histopathological lesions” value [2] was “-” and the “Tongue: histopathological lesions” value [2] was “-”. The “Trachea: histopathological lesions” value [2] was “-”, the “Urinary bladder: histopathological lesions” value [2] was “-” and the “Uterus: histopathological lesions” value [2] was “-”. For the same molecule, the “Vagina: histopathological lesions” value [2] was “-”, the “Bone, femur … Score value” [2] was 0 and the “treatment-related lesions in the histopathological examination” value (high dose (37.5 mg/kg) oral 28 d) was “no significant treatment-related lesions”. For the same molecule, the “Adrenal gland: Congestion, cortex, multifocal, slight; incidence” value (male rats, 7.5 mg/kg oral 28 d) was “-”, the “Aorta: histopathological lesions” value (male rats, 7.5 mg/kg oral 28 d) was “-” and the “Bone marrow, femur: Hypocellularity, diffuse, slight to moderate/severe; incidence” value (male rats, 7.5 mg/kg oral 28 d) was 0/5. For the same molecule, the “Bone marrow, sternum: Hypocellularity, diffuse, moderate; incidence” value (male rats, 7.5 mg/kg oral 28 d) was 0/5, the “Bone, femur … to moderate/severe; incidence” value (male rats, 7.5 mg/kg oral 28 d) was 0/5 and the “Coagulative gland: histopathological lesions” value (male rats, 7.5 mg/kg oral 28 d) was “-”. The “Epididymis: Granuloma, spermatic, focal, moderate; incidence” value (male rats, 7.5 mg/kg oral 28 d) was “-”, the “Esophagus: histopathological lesions” value (male rats, 7.5 mg/kg oral 28 d) was “-” and the “Eyes: histopathological lesions” value (male rats, 7.5 mg/kg oral 28 d) was “-”. For the same molecule, the “Harderian gland: histopathological lesions” value (male rats, 7.5 mg/kg oral 28 d) was “-”, the “Heart: Infiltration, mononuclear cell, focal, minimal to slight; incidence” value (male rats, 7.5 mg/kg oral 28 d) was 1/5 and the “Intestine, large, Caecum: histopathological lesions” value (male rats, 7.5 mg/kg oral 28 d) was “-”. The “Intestine, large, Colon: histopathological lesions” value (male rats, 7.5 mg/kg oral 28 d) was “-”, the “Intestine, large, Rectum: histopathological lesions” value (male rats, 7.5 mg/kg oral 28 d) was “-” and the “Intestine, small, Duodenum: histopathological lesions” value (male rats, 7.5 mg/kg oral 28 d) was “-”. For the same molecule, the “Intestine, small, Ileum: histopathological lesions” value (male rats, 7.5 mg/kg oral 28 d) was “-”, the “Intestine, small, Jejunum: histopathological lesions” value (male rats, 7.5 mg/kg oral 28 d) was “-” and the “Kidney: Cast, tubule, focal, minimal; incidence” value (male rats, 7.5 mg/kg oral 28 d) was “-”. The “Kidney: Cyst, tubule, focal, slight; incidence” value (male rats, 7.5 mg/kg oral 28 d) was 1/5, the “Kidney: Infarct, tubule, focal, slight; incidence” value (male rats, 7.5 mg/kg oral 28 d) was 2/5 and the “Liver: histopathological lesions” value (male rats, 7.5 mg/kg oral 28 d) was “-”. For the same molecule, the “Lung: histopathological lesions” value (male rats, 7.5 mg/kg oral 28 d) was “-”, the “Lymph node, Cervical: histopathological lesions” value (male rats, 7.5 mg/kg oral 28 d) was “-” and the “Lymph node, Mesenteric: histopathological lesions” value (male rats, 7.5 mg/kg oral 28 d) was “-”. The “Mammary gland: histopathological lesions” value (male rats, 7.5 mg/kg oral 28 d) was “-”, the “Optic nerve: histopathological lesions” value (male rats, 7.5 mg/kg oral 28 d) was “-” and the “Pancreas: histopathological lesions” value (male rats, 7.5 mg/kg oral 28 d) was “-”. For the same molecule, the “Parathyroid gland: histopathological lesions” value (male rats, 7.5 mg/kg oral 28 d) was “-”, the “Pituitary: histopathological lesions” value (male rats, 7.5 mg/kg oral 28 d) was “-” and the “Salivary gland, Mandibular lobe: histopathological lesions” value (male rats, 7.5 mg/kg oral 28 d) was “-”. For the same molecule, the “Salivary gland, Sublingual lobe: histopathological lesions” value (male rats, 7.5 mg/kg oral 28 d) was “-”, the “Sciatic nerve: histopathological lesions” value (male rats, 7.5 mg/kg oral 28 d) was “-” and the “Seminal vesicle: histopathological lesions” value (male rats, 7.5 mg/kg oral 28 d) was “-”. The “Skeletal muscle: histopathological lesions” value (male rats, 7.5 mg/kg oral 28 d) was “-”, the “Skin: histopathological lesions” value (male rats, 7.5 mg/kg oral 28 d) was “-” and the “Spinal cord: histopathological lesions” value (male rats, 7.5 mg/kg oral 28 d) was “-”. For the same molecule, the “Spleen: Atrophy, red pulp, diffuse, slight to moderate; incidence” value (male rats, 7.5 mg/kg oral 28 d) was 0/5, the “Stomach: histopathological lesions” value (male rats, 7.5 mg/kg oral 28 d) was “-” and the “Testis: histopathological lesions” value (male rats, 7.5 mg/kg oral 28 d) was “-”. The “Thymus: histopathological lesions” value (male rats, 7.5 mg/kg oral 28 d) was “-”, the “Thyroid gland: histopathological lesions” value (male rats, 7.5 mg/kg oral 28 d) was “-” and the “Tongue: histopathological lesions” value (male rats, 7.5 mg/kg oral 28 d) was “-”. For the same molecule, the “Trachea: histopathological lesions” value (male rats, 7.5 mg/kg oral 28 d) was “-”, the “Urinary bladder: histopathological lesions” value (male rats, 7.5 mg/kg oral 28 d) was “-” and the “Bone marrow, femur: Hypocellularity; Score value” (male rats, 7.5 mg/kg oral 28 d) was 0. For the same molecule, the “Bone marrow, sternum: Hypocellularity; Score value” (male rats, 7.5 mg/kg oral 28 d) was 0, the “Bone, femur … Score value” (male rats, 7.5 mg/kg oral 28 d) was 0 and the “Spleen: Atrophy, red pulp; Score value” (male rats, 7.5 mg/kg oral 28 d) was 0. For the same molecule, the “Adrenal gland: Congestion, cortex, multifocal, slight; incidence” value [3] was “-”, the “Aorta: histopathological lesions” value [3] was “-” and the “Bone marrow, femur: Hypocellularity, diffuse, slight to moderate/severe; incidence” value [3] was 0/5. For the same molecule, the “Bone marrow, sternum: Hypocellularity, diffuse, moderate; incidence” value [3] was 0/5, the “Bone, femur … to moderate/severe; incidence” value [3] was 0/5 and the “Coagulative gland: histopathological lesions” value [3] was “-”. For the same molecule, the “Epididymis: Granuloma, spermatic, focal, moderate; incidence” value [3] was “-”, the “Esophagus: histopathological lesions” value [3] was “-” and the “Eyes: histopathological lesions” value [3] was “-”. The “Harderian gland: histopathological lesions” value [3] was “-”, the “Heart: Infiltration, mononuclear cell, focal, minimal to slight; incidence” value [3] was 1/5 and the “Intestine, large, Caecum: histopathological lesions” value [3] was “-”. The “Intestine, large, Colon: histopathological lesions” value [3] was “-”, the “Intestine, large, Rectum: histopathological lesions” value [3] was “-” and the “Intestine, small, Duodenum: histopathological lesions” value [3] was “-”. For the same molecule, the “Intestine, small, Ileum: histopathological lesions” value [3] was “-”, the “Intestine, small, Jejunum: histopathological lesions” value [3] was “-” and the “Kidney: Cast, tubule, focal, minimal; incidence” value [3] was “-”. For the same molecule, the “Kidney: Infarct, tubule, focal, slight; incidence” value [3] was 1/5, the “Liver: histopathological lesions” value [3] was “-” and the “Lung: histopathological lesions” value [3] was “-”. The “Lymph node, Cervical: histopathological lesions” value [3] was “-”, the “Lymph node, Mesenteric: histopathological lesions” value [3] was “-” and the “Mammary gland: histopathological lesions” value [3] was “-”. The “Optic nerve: histopathological lesions” value [3] was “-”, the “Pancreas: histopathological lesions” value [3] was “-” and the “Parathyroid gland: histopathological lesions” value [3] was “-”. The “Pituitary: histopathological lesions” value [3] was “-”, the “Prostate gland: Infiltration, mononuclear cell, focal, minimal to slight; incidence” value [3] was 2/5 and the “Salivary gland, Mandibular lobe: histopathological lesions” value [3] was “-”. For the same molecule, the “Salivary gland, Sublingual lobe: histopathological lesions” value [3] was “-”, the “Sciatic nerve: histopathological lesions” value [3] was “-” and the “Seminal vesicle: histopathological lesions” value [3] was “-”. For the same molecule, the “Skeletal muscle: histopathological lesions” value [3] was “-”, the “Skin: histopathological lesions” value [3] was “-” and the “Spinal cord: histopathological lesions” value [3] was “-”. For the same molecule, the “Spleen: Atrophy, red pulp, diffuse, slight to moderate; incidence” value [3] was 0/5, the “Stomach: histopathological lesions” value [3] was “-” and the “Testis: histopathological lesions” value [3] was “-”. The “Thymus: histopathological lesions” value [3] was “-”, the “Thyroid gland: histopathological lesions” value [3] was “-” and the “Tongue: histopathological lesions” value [3] was “-”. The “Trachea: histopathological lesions” value [3] was “-”, the “Urinary bladder: histopathological lesions” value [3] was “-” and the “Bone marrow, femur: Hypocellularity; Score value” [3] was 0. The “Bone marrow, sternum: Hypocellularity; Score value” [3] was 0, the “Bone, femur … Score value” [3] was 0 and the “Spleen: Atrophy, red pulp; Score value” [3] was 0.
